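Test compounds were applied to cells in 96-well plates for 48 hours at 5 doses. The concentration for 50% growth inhibition is given as GI50. Definition used: TGI = concentration required for complete inhibition of growth.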

Test systems include HOP-18 NSCLC; DMS 114 small cell lung; M19-MEL melanoma; KM20L2 colon; RXF-631 renal; SNB-78 CNS; LXFL 529 NSCLC; XF 498 CNS; MDA-N; P388/ADR leukemia; P388 leukemia; SN12K1 renal.
Holding throughout (test): NCI tumour cell line growth inhibition, 48 h

With `Fc1ccc(C2SCc3nc4ccccc4n32)c(F)c1` (stereo not drawn), the TGI in the assay with HOP-18 NSCLC, in the assay on DMS 114 small cell lung, in the assay on M19-MEL melanoma, with KM20L2 colon, in the assay on RXF-631 renal and with SNB-78 CNS was more than 100 µM throughout.

As for `Clc1ccc(Nc2nc3ccccc3nc2-c2cccs2)cc1Cl`, the TGI with HOP-18 NSCLC, with LXFL 529 NSCLC, with M19-MEL melanoma, with KM20L2 colon, with XF 498 CNS and in the assay with RXF-631 renal was more than 100 µM each time. In addition, the TGI in the assay with SNB-78 CNS is more than 100 µM.

`COc1ccc(-c2cc(Cc3cccs3)c(=O)[nH]n2)cc1`: the TGI in the assay on LXFL 529 NSCLC, with DMS 114 small cell lung, with M19-MEL melanoma, with KM20L2 colon and in the assay on SNB-78 CNS was more than 100 µM each time.

`O=C(O)c1ccc(C(=O)c2ccccc2)c(C(=O)O)c1`: the TGI with MDA-N was more than 100 µM.

`O=C1OC(=O)C(=C\c2ccc3c(c2)OCO3)/C1=C/c1ccc2c(c1)OCO2` gave a TGI in the assay with MDA-N of more than 100 µM.

On to `C#C[C@]1(O)CCCC2=CC(=O)CC[C@@]21C`, for which the TGI with HOP-18 NSCLC, in the assay with LXFL 529 NSCLC, in the assay with DMS 114 small cell lung, in the assay on M19-MEL melanoma and in the assay on KM20L2 colon was more than 100 µM in each case.

With `Cc1ccc(-c2nnc(-c3nn(-c4ccccc4)c4nc5ccccc5nc34)o2)cc1`, the TGI in the assay on HOP-18 NSCLC is 65.2 µM; with LXFL 529 NSCLC, 35.7 µM; with DMS 114 small cell lung, 51.1 µM; in the assay with M19-MEL melanoma it was more than 100 µM; in the assay with KM20L2 colon, more than 100 µM; with XF 498 CNS it was 25.4 µM. The TGI with SNB-78 CNS is more than 100 µM.

Turning to `O=C1c2ccccc2-c2cc([N+](=O)[O-])c([N+](=O)[O-])cc21`, the TGI in the assay on MDA-N was 5.18 µM.

For the compound `O=C1CC(c2c[nH]c3ccccc23)C(=O)N1` (stereo not drawn), the TGI in the assay with LXFL 529 NSCLC, in the assay on M19-MEL melanoma, in the assay with KM20L2 colon, with XF 498 CNS, in the assay on RXF-631 renal and with SNB-78 CNS was more than 100 µM throughout.

Turning to `Nc1nc(OCc2ccccc2)c2[nH]cnc2n1`, the TGI came out at 335 µM in the assay on HOP-18 NSCLC; 400 µM in the assay on LXFL 529 NSCLC; 191 µM with DMS 114 small cell lung; 400 µM with M19-MEL melanoma; 400 µM in the assay with KM20L2 colon; 309 µM in the assay with RXF-631 renal. The same compound showed a TGI with SNB-78 CNS of 400 µM.

Regarding `O=C1C(=C([O-])c2ccccc2)C(=O)c2ccccc21.O=C1C(=C([O-])c2ccccc2)C(=O)c2ccccc21.[Fe+2]`, the GI50 with HOP-18 NSCLC and with M19-MEL melanoma was more than 100 µM in each case. Also, the TGI in the assay with HOP-18 NSCLC and in the assay on M19-MEL melanoma was more than 100 µM each time.

For `CC/C=C\C/C=C\C/C=C\CCCCCCCC(=O)OCC(O)CO` (stereo not drawn), the TGI is more than 100 µM in the assay with HOP-18 NSCLC; more than 68.9 µM in the assay with LXFL 529 NSCLC; more than 71 µM with DMS 114 small cell lung; more than 100 µM with KM20L2 colon; more than 100 µM in the assay with XF 498 CNS; more than 73.8 µM with SNB-78 CNS.

Regarding `Cc1ccc2c(C3Cc4ccccc4N3C(=O)/C=C\C(=O)O)c(C)[nH]c2c1` (stereo not drawn), the TGI is 42.9 µM in the assay with LXFL 529 NSCLC; more than 100 µM in the assay on DMS 114 small cell lung; more than 100 µM in the assay on M19-MEL melanoma; more than 100 µM with KM20L2 colon; 45.3 µM in the assay with SNB-78 CNS.

On to `O=[N+]([O-])c1ccc(C=Cc2ccccc2)cc1.[C-]#[O+].[C-]#[O+].[C-]#[O+].[Cr]`, for which, in the assay with MDA-N, the GI50 is 7.25 µM and the TGI is more than 100 µM.

As for `COc1cc(C(=O)C/C(CCC(=O)Nc2ccccc2[N+](=O)[O-])=N\NC(N)=O)ccc1O`, the TGI with HOP-18 NSCLC, with DMS 114 small cell lung, in the assay with M19-MEL melanoma, in the assay on KM20L2 colon, in the assay on XF 498 CNS and with RXF-631 renal was more than 100 µM throughout. The TGI with SNB-78 CNS was more than 100 µM.

In the case of `N#CC(=C1C=CC(=NO)C=C1)c1ccc(Cl)cc1`, the TGI is more than 100 µM in the assay on HOP-18 NSCLC; 18 µM in the assay on LXFL 529 NSCLC; 31.5 µM in the assay on DMS 114 small cell lung; 46.9 µM with M19-MEL melanoma; more than 100 µM with KM20L2 colon.

For the compound `CCOC(=O)C1C(=S)NC(=O)C1C#N` (stereo not drawn), the TGI with HOP-18 NSCLC, with LXFL 529 NSCLC, with DMS 114 small cell lung, in the assay on M19-MEL melanoma, with KM20L2 colon and in the assay on RXF-631 renal was more than 100 µM throughout.

For `Cc1c(/C=N/N=C/c2[nH]c(C(=O)OC(C)(C)C)c(C)c2C)[nH]c(C(=O)OC(C)(C)C)c1C`, the TGI with HOP-18 NSCLC, in the assay on LXFL 529 NSCLC, in the assay on DMS 114 small cell lung, in the assay with M19-MEL melanoma, with KM20L2 colon and with SNB-78 CNS was more than 100 µM throughout.

On to `O=C1OC(Cc2ccccc2)(N2CCCC2=O)C1c1ccccc1` (stereo not drawn), for which the TGI with LXFL 529 NSCLC is more than 100 µM; in the assay on DMS 114 small cell lung, 81 µM; with M19-MEL melanoma it was more than 100 µM; in the assay on KM20L2 colon, more than 100 µM; with XF 498 CNS, 88.5 µM; with SNB-78 CNS it was more than 100 µM.

For `NNC(=O)CS(=O)(=O)Nc1ncccn1`, in the assay with MDA-N, the TGI was more than 100 µM.

For the compound `COC(=O)C1(C)CCc2c(OC)ccc(OC)c2C1=O` (stereo not drawn), the TGI in the assay on LXFL 529 NSCLC, in the assay on DMS 114 small cell lung, in the assay with M19-MEL melanoma, in the assay with XF 498 CNS, with RXF-631 renal and in the assay on SNB-78 CNS was more than 100 µM in each case.

As to `NC(=O)c1csc(C2OC(CO)C(O)C2O)n1` (stereo not drawn), the TGI is more than 3980 µM in the assay on HOP-18 NSCLC; 3160 µM in the assay on DMS 114 small cell lung; 84.1 µM in the assay on P388/ADR leukemia; more than 5520 µM with M19-MEL melanoma; more than 9200 µM in the assay on KM20L2 colon; 732 µM with XF 498 CNS. The TGI in the assay on MDA-N is more than 6490 µM; in the assay on P388 leukemia, 159 µM; with SN12K1 renal, more than 9220 µM; in the assay on SNB-78 CNS it was more than 9480 µM. For the same compound, the GI50 in the assay with MDA-N was 59.5 µM.

`O=C(O)CN1CCN(CC(=O)O)CC(=O)[O][Hg][O]C(=O)C1`: in the assay on MDA-N, the GI50 is 16.7 µM and the TGI came out at 31.7 µM.

Regarding `Cc1cccc(C)c1NC(=O)/C(=N/NC(N)=S)C(C)C(=O)c1ccc(Cl)cc1` (stereo not drawn), the TGI in the assay with HOP-18 NSCLC, with LXFL 529 NSCLC, with DMS 114 small cell lung, with M19-MEL melanoma, in the assay on KM20L2 colon and in the assay on XF 498 CNS was more than 100 µM throughout. Also, the TGI in the assay with RXF-631 renal and in the assay with SNB-78 CNS was more than 100 µM each time.

For `COc1cc2c(cc1C1COc3cc4occc4cc3C1=O)OCO2` (stereo not drawn), in the assay on MDA-N, the TGI is more than 100 µM.

`CC(=O)Nc1ccc(SC#N)c2c(NC(C)=O)cccc12`: the TGI with HOP-18 NSCLC is more than 100 µM; in the assay with LXFL 529 NSCLC it was more than 73 µM; in the assay on DMS 114 small cell lung, more than 100 µM; in the assay with M19-MEL melanoma, more than 100 µM; in the assay on KM20L2 colon, more than 100 µM; in the assay on RXF-631 renal it was more than 100 µM. This compound also had a TGI in the assay on SNB-78 CNS of more than 100 µM.

As to `COC(=O)C1CC2CC(=NNC(N)=O)CC2C1` (stereo not drawn), the TGI with LXFL 529 NSCLC, in the assay on DMS 114 small cell lung, in the assay on M19-MEL melanoma, in the assay on XF 498 CNS and in the assay with SNB-78 CNS was more than 100 µM in each case.

With `O=C(NC1CCCCC1)NS(=O)(=O)c1ccc2c(c1)CCC2`, the TGI in the assay on HOP-18 NSCLC, in the assay on DMS 114 small cell lung, in the assay on M19-MEL melanoma, in the assay on XF 498 CNS and in the assay on RXF-631 renal was more than 100 µM throughout.

For `CCN(CC)CC1c2ccccc2C(CNc2ccccc2)N1C` (stereo not drawn), the TGI in the assay on LXFL 529 NSCLC, in the assay on DMS 114 small cell lung, with M19-MEL melanoma, with KM20L2 colon, in the assay on XF 498 CNS and in the assay with RXF-631 renal was more than 100 µM in each case. In the assay with SNB-78 CNS, this compound showed a TGI of more than 100 µM.

On to `O=C1NC(=O)C2C(=O)NC(=O)C1C2c1c(Cl)cccc1Cl` (stereo not drawn), for which the TGI in the assay on HOP-18 NSCLC was more than 100 µM; in the assay on LXFL 529 NSCLC, more than 100 µM; in the assay with DMS 114 small cell lung it was more than 53.5 µM; in the assay with KM20L2 colon, more than 83.6 µM; in the assay with XF 498 CNS it was more than 100 µM; in the assay with RXF-631 renal it was more than 100 µM. The same compound displayed a TGI with SNB-78 CNS of more than 100 µM.

Turning to `COC1C=COC2(C)Oc3c(C)c(O)c4c(c3C2=O)/C(=N/C2CCC(O)OC2C)C=C(NC(=O)/C(C)=C\C(=O)C2CC2C(O)C(C)C(O)C(C)C(OC(C)=O)C1C)C4=O` (stereo not drawn), the TGI in the assay with MDA-N was determined as 3.83 µM.

As to `COc1ccc(C=O)c([N+](=O)[O-])c1`, the TGI is more than 100 µM in the assay on HOP-18 NSCLC; 66.9 µM with DMS 114 small cell lung; more than 100 µM with M19-MEL melanoma; 45.2 µM with KM20L2 colon; more than 100 µM in the assay with XF 498 CNS; more than 100 µM with RXF-631 renal. In addition, the TGI in the assay on SNB-78 CNS was more than 100 µM.

On to `CCC(=O)C12OC3OC(C)(C)OC3C1OC(C)(C)O2` (stereo not drawn), for which the TGI in the assay with M19-MEL melanoma, in the assay with XF 498 CNS, with RXF-631 renal and in the assay on SNB-78 CNS was more than 100 µM in each case.

Consider `CC#CCC1CCC(OCC)=CC1=O` (stereo not drawn), for which the TGI in the assay on HOP-18 NSCLC, with LXFL 529 NSCLC, with DMS 114 small cell lung, with M19-MEL melanoma, with KM20L2 colon and in the assay on XF 498 CNS was more than 100 µM each time. Moreover, the TGI with RXF-631 renal and with SNB-78 CNS was more than 100 µM in each case.

(Values after PubChem BioAssay (NCI).)
